Results published in PMC8319832, “Fine-Tuning of Alkaline Residues on the Hydrophilic Face Provides a Non-toxic Cationic α-Helical Antimicrobial Peptide Against Antibiotic-Resistant ESKAPE Pathogens” (Frontiers in Microbiology, 2021).
In brackets after ≈: the same amount, converted by molar mass.

Columns and labels:
S. aureus 4188 [1] = assay: Drug sensitivity, Kirby-Bauer test; format: cell-based, Staphylococcus aureus; design: key: 'S' represents susceptibility; 'I' represents intermediate efficacy; 'R' represents resistance; settings: clinical isolate
Protocol: (§1) The bacteria used in this study included the standard strains S. aureus ATCC29213 and ATCC25923, E. faecalis ATCC29212, E. coli ATCC25922 and ATCC35218, A. baumannii ATCC19606, K. pneumoniae ATCC700603 and P. aeruginosa ATCC27853, these strains were purchased from the China Center of Type Culture Collection (CCTCC). The antimicrobial activities of the peptides were also determined against clinically isolated strains S. aureus 4188, 9124, 1176, S. epidermidis 9092, 6943, 888, E. faecalis 901, E. faecium 898, E. coli 2678, 2687, K. pneumoniae 9126, P. aeruginosa 9014, 9042, and A. baumannii 906, 13012, 13079, 9068, these strains were acquired from Taihe Hospital, Hubei University of Medicine. The drug sensitivities of the clinical isolates to the antibiotics were determined by the Kirby-Bauer test ([Chinnambedu et al., 2020]).

S. aureus 1176 [2] = assay: Drug sensitivity, Kirby-Bauer test; format: cell-based, Staphylococcus aureus; design: key: 'S' represents susceptibility; 'I' represents intermediate efficacy; 'R' represents resistance; settings: clinical isolate
Protocol: as §1

S. aureus 9124 [3] = assay: Drug sensitivity, Kirby-Bauer test; format: cell-based, Staphylococcus aureus; design: key: 'S' represents susceptibility; 'I' represents intermediate efficacy; 'R' represents resistance; settings: clinical isolate, MRSA
Protocol: as §1

E. faecium 898 [4] = assay: Drug sensitivity, Kirby-Bauer test; format: cell-based, Enterococcus faecium; design: key: 'S' represents susceptibility; 'I' represents intermediate efficacy; 'R' represents resistance; settings: clinical isolate
Protocol: as §1

S. epidermidis 6943 [5] = assay: Drug sensitivity, Kirby-Bauer test; format: cell-based; design: key: 'S' represents susceptibility; 'I' represents intermediate efficacy; 'R' represents resistance; settings: clinical isolate, MRSE
Protocol: as §1

S. epidermidis 9092 [6] = assay: Drug sensitivity, Kirby-Bauer test; format: cell-based; design: key: 'S' represents susceptibility; 'I' represents intermediate efficacy; 'R' represents resistance; settings: clinical isolate, MRSE
Protocol: as §1

E. faecalis 901 [7] = assay: Drug sensitivity, Kirby-Bauer test; format: cell-based; design: key: 'S' represents susceptibility; 'I' represents intermediate efficacy; 'R' represents resistance; settings: clinical isolate
Protocol: as §1

S. epidermidis 888 [8] = assay: Drug sensitivity, Kirby-Bauer test; format: cell-based; design: key: 'S' represents susceptibility; 'I' represents intermediate efficacy; 'R' represents resistance; settings: clinical isolate
Protocol: as §1

K. pneumoniae 9126 = assay: MIC, broth dilution; format: cell-based, Klebsiella pneumoniae; settings: CLSI broth dilution, MHB, 37°C, 20 h, OD630, at least three repeats; clinical isolate, CRE
Excerpt: (§2) All experiments were repeated at least three times.

E. coli 2678 = assay: MIC, broth dilution; format: cell-based, Escherichia coli; settings: CLSI broth dilution, MHB, 37°C, 20 h, OD630, at least three repeats; clinical isolate, ESBL
Excerpt: as §2

E. coli ATCC35218 = assay: MIC, broth dilution; format: cell-based, Escherichia coli; settings: CLSI broth dilution, MHB, 37°C, 20 h, OD630, at least three repeats; standard strain
Excerpt: as §2

E. coli 2687 = assay: MIC, broth dilution; format: cell-based, Escherichia coli; settings: CLSI broth dilution, MHB, 37°C, 20 h, OD630, at least three repeats; clinical isolate, ESBL
Excerpt: as §2

P. aeruginosa 9042 = assay: MIC, broth dilution; format: cell-based, Pseudomonas aeruginosa; settings: CLSI broth dilution, MHB, 37°C, 20 h, OD630, at least three repeats; clinical isolate
Excerpt: as §2

P. aeruginosa 9014 = assay: MIC, broth dilution; format: cell-based, Pseudomonas aeruginosa; settings: CLSI broth dilution, MHB, 37°C, 20 h, OD630, at least three repeats; clinical isolate, CRE, MDR
Excerpt: as §2

E. faecium 898 [9] = assay: MIC, broth dilution; format: cell-based, Enterococcus faecium; settings: CLSI broth dilution, MHB, 37°C, 20 h, OD630, at least three repeats; clinical isolate
Excerpt: as §2

S. aureus 4188 [10] = assay: MIC, broth dilution; format: cell-based, Staphylococcus aureus; settings: CLSI broth dilution, MHB, 37°C, 20 h, OD630, at least three repeats; clinical isolate, penicillin-resistant
Excerpt: as §2

S. aureus 1176 [11] = assay: MIC, broth dilution; format: cell-based, Staphylococcus aureus; settings: CLSI broth dilution, MHB, 37°C, 20 h, OD630, at least three repeats; clinical isolate
Excerpt: as §2

S. aureus 9124 [12] = assay: MIC, broth dilution; format: cell-based, Staphylococcus aureus; settings: CLSI broth dilution, MHB, 37°C, 20 h, OD630, at least three repeats; clinical isolate, MRSA
Excerpt: as §2

A. baumannii ATCC 19606 = assay: MIC, broth dilution; format: cell-based, Acinetobacter baumannii; settings: CLSI broth dilution, MHB, 37°C, 20 h, OD630, at least three repeats; standard strain
Protocol: as §2
(§3) To study the influence of physiological ions on the antimicrobial activities of the peptides, The MICs of the peptides were also determined against the standard bacterial strains cultured in MHB containing various salts at their physiological concentrations (150 mM NaCl, 4.5 mM KCl, 1 mM MgCl2, 2 mM CaCl2, 6 μM NH4HCO3, and 4 μM FeCl3) ([Ma et al., 2016]).

[13] = system: K. pneumoniae ATCC 700603; assay: MIC, broth dilution; format: cell-based, Klebsiella pneumoniae; settings: CLSI broth dilution, MHB, 37°C, 20 h, OD630, at least three repeats; standard strain
Protocol: as §2, §3

S. epidermidis 6943 [14] = assay: MIC, broth dilution; format: cell-based; settings: CLSI broth dilution, MHB, 37°C, 20 h, OD630, at least three repeats; clinical isolate, MRSE
Excerpt: as §2

S. epidermidis 9092 [15] = assay: MIC, broth dilution; format: cell-based; settings: CLSI broth dilution, MHB, 37°C, 20 h, OD630, at least three repeats; clinical isolate, MRSE
Excerpt: as §2

E. faecalis 901 [16] = assay: MIC, broth dilution; format: cell-based; settings: CLSI broth dilution, MHB, 37°C, 20 h, OD630, at least three repeats; clinical isolate
Excerpt: as §2

S. epidermidis 888 [17] = assay: MIC, broth dilution; format: cell-based; settings: CLSI broth dilution, MHB, 37°C, 20 h, OD630, at least three repeats; clinical isolate
Excerpt: as §2

A. baumannii 906 = assay: MIC, broth dilution; format: cell-based, Acinetobacter baumannii; settings: CLSI broth dilution, MHB, 37°C, 20 h, OD630, at least three repeats; clinical isolate, CRE, MDR
Excerpt: as §2

A. baumannii 13079 = assay: MIC, broth dilution; format: cell-based, Acinetobacter baumannii; settings: CLSI broth dilution, MHB, 37°C, 20 h, OD630, at least three repeats; clinical isolate, CRE, MDR
Excerpt: as §2

A. baumannii 9068 = assay: MIC, broth dilution; format: cell-based, Acinetobacter baumannii; settings: CLSI broth dilution, MHB, 37°C, 20 h, OD630, at least three repeats; clinical isolate, CRE, MDR
Excerpt: as §2

A. baumannii 13012 = assay: MIC, broth dilution; format: cell-based, Acinetobacter baumannii; settings: CLSI broth dilution, MHB, 37°C, 20 h, OD630, at least three repeats; clinical isolate, CRE, MDR
Excerpt: as §2

Row | Compound | Drug sensitivity of the isolate to the antibiotic (S. aureus 4188 [1]) | Drug sensitivity of the isolate to the antibiotic (S. aureus 1176 [2]) | Drug sensitivity of the isolate to the antibiotic (S. aureus 9124 [3]) | Drug sensitivity of the isolate to the antibiotic (E. faecium 898 [4]) | Drug sensitivity of the isolate to the antibiotic (S. epidermidis 6943 [5]) | Drug sensitivity of the isolate to the antibiotic (S. epidermidis 9092 [6]) | Drug sensitivity of the isolate to the antibiotic (E. faecalis 901 [7]) | Drug sensitivity of the isolate to the antibiotic (S. epidermidis 888 [8]) | other results
1 | CC[C@H]1OC(=O)[C@H](C)[C@@H](O[C@H]2C[C@@](C)(OC)[C@@H](O)[C@H](C)O2)[C@H](C)[C@@H](O[C@@H]2O[C@H](C)C[C@H](N(C)C)[C@H]2O)[C@](C)(O)C[C@@H](C)C(=O)[C@H](C)[C@@H](O)[C@]1(C)O [Erythromycin] | S | R | R | R | R | R | R | R | –
2 | CNC(C)C1CCC(N)C(OC2C(N)CC(N)C(OC3OCC(C)(O)C(NC)C3O)C2O)O1 (stereo not shown) [Gentamicin] | S | S | S | R | S | R | R | R | –
3 | CC[C@H](C)[C@H](NC(=O)CN)C(=O)NCC(=O)N[C@@H](C)C(=O)N[C@H](C(=O)N[C@@H](CC(C)C)C(=O)N[C@@H](CCCCN)C(=O)N[C@H](C(=O)N[C@@H](CC(C)C)C(=O)N[C@H](C(=O)N[C@H](C(=O)NCC(=O)N[C@@H](CC(C)C)C(=O)N1CCC[C@H]1C(=O)N[C@@H](C)C(=O)N[C@@H](CC(C)C)C(=O)N[C@H](C(=O)N[C@@H](CO)C(=O)N[C@@H](Cc1c[nH]c2ccccc12)C(=O)N[C@H](C(=O)N[C@@H](CCCCN)C(=O)N[C@@H](CCCNC(=N)N)C(=O)N[C@@H](CCCCN)C(=O)N[C@@H](CCCNC(=N)N)C(=O)N[C@@H](CCC(N)=O)C(=O)N[C@@H](CCC(N)=O)C(N)=O)[C@@H](C)CC)[C@@H](C)CC)[C@@H](C)O)[C@@H](C)O)C(C)C)C(C)C [Melittin] | – | – | – | – | – | – | – | – | MIC (K. pneumoniae 9126): 5 µg/mL (≈ 1.76 µM); MIC (E. coli 2678): 5 µg/mL (≈ 1.76 µM); MIC (E. coli ATCC35218): 5 µg/mL (≈ 1.76 µM); MIC (E. coli 2687): 2.5 µg/mL (≈ 0.878 µM); MIC (P. aeruginosa 9042): 5 µg/mL (≈ 1.76 µM); MIC (P. aeruginosa 9014): 5 µg/mL (≈ 1.76 µM); MIC (E. faecium 898 [9]): 5 µg/mL (≈ 1.76 µM); MIC (S. aureus 4188 [10]): 2.5 µg/mL (≈ 0.878 µM); MIC (S. aureus 1176 [11]): 5 µg/mL (≈ 1.76 µM); MIC (S. aureus 9124 [12]): 2.5 µg/mL (≈ 0.878 µM); MIC (A. baumannii ATCC 19606): 2.5 µg/mL (≈ 0.878 µM); MIC [13]: 5 µg/mL (≈ 1.76 µM); MIC (S. epidermidis 6943 [14]): 2.5 µg/mL (≈ 0.878 µM); MIC (S. epidermidis 9092 [15]): 2.5 µg/mL (≈ 0.878 µM); MIC (E. faecalis 901 [16]): 2.5 µg/mL (≈ 0.878 µM); MIC (S. epidermidis 888 [17]): 2.5 µg/mL (≈ 0.878 µM); MIC (A. baumannii 906): 2.5 µg/mL (≈ 0.878 µM); MIC (A. baumannii 13079): 2.5 µg/mL (≈ 0.878 µM); MIC (A. baumannii 9068): 2.5 µg/mL (≈ 0.878 µM); MIC (A. baumannii 13012): 2.5 µg/mL (≈ 0.878 µM)
4 | Penicillin | R | R | R | R | R | R | S | S | –
5 | CO[C@H]1/C=C/O[C@@]2(C)Oc3c(C)c(O)c4c(O)c(c(/C=N/N5CCN(C)CC5)c(O)c4c3C2=O)NC(=O)/C(C)=C\C=C\[C@H](C)[C@H](O)[C@@H](C)[C@@H](O)[C@@H](C)[C@H](OC(C)=O)[C@@H]1C [Rifampin] | S | S | S | R | S | S | R | S | –
